In brackets after ≈: the same amount, converted by molar mass. Where two headings read alike, the source gives them in different places. Square brackets hold non-standard residues; d marks the D form. Peptide text beside a SMILES is read from it.
Columns and labels:
[1] = tested on: gram-positive bacteria
Method: Measurement of Antimicrobial Activity—Minimal inhibitory concentrations (MICs) were determined using a standard microtiter dilution method in LB (Luria-Bertani) no-salt medium (10 g of tryptone and 5 g of yeast extract per liter). Briefly, cells were grown overnight at 37° C. in LB and diluted in the same medium. […] Plates were incubated at 37° C. for 24 hours and MICs determined as the lowest peptide concentration that inhibited growth. Alternatively, minimal inhibitory concentrations were determined using a standard microtiter dilution method in a Mueller-Hinton (MH) medium. Briefly, cells were grown overnight at 37° C. in MH broth and diluted in the same medium. […] Plates were incubated at 37° C. for 24 hours and MICs determined as the lowest peptide concentration that inhibited growth. However, for MIC determination of Pseudomonas aeruginosa clinical isolates, brain heart infusion (BH1) medium was used instead of MH broth. In addition, the bacteria were diluted to a final inoculum of 1×10^6 colony-forming units/ml.

[2] = RP-HPLC temperature profiling (hydrophobicity and self-association/dimerization parameter PA); type: physicochemical; settings: for tR (min) 5° C.: RP-HPLC retention time at 5° C. during temperature profiling (measure of hydrophobicity); for tR (min) 80° C.: RP-HPLC retention time at 80° C. during temperature profiling; for tR (min) Max: maximal RP-HPLC retention time during temperature profiling 5-80° C.; for PA (min) association parameter: maximal retention time difference relative to control peptide C within 5-80° C.; for ΔtR (X-NVL) (min) 5° C.: retention time difference relative to native peptide V681 (NVL) at 5° C.; for ΔtR (X-NVL) (min) 80° C.: retention time difference relative to native peptide V681 (NVL) at 80° C.
Summary of the method: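 RP-HPLC retention times recorded over temperature profiling from 5°C to 80°C, with retention relative to native V681 at each limit used as hydrophobicity. Self-association parameter PA defined as the maximal change in retention time from 5°C, after subtracting that of monomeric random-coil control peptide C.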

[3] = non-polar face substitutions, relative hydrophobicity

Row | SMILES | MIC (μg/ml) Gram-positive [1] | tR (min) 5° C. [2] | tR (min) 80° C. [2] | decrease in hydrophobicity relative to NVL (V681) ([2]; RP-HPLC retention time difference at 80° C., non-polar face substitutions) | tR (min) Max [2] | PA (min) association parameter [2] | ΔtR (X-NVL) (min) 5° C. [2, 3] | ΔtR (X-NVL) (min) 80° C. [2, 3] | ΔtR (X-PSL) (min) 5° C. ([2]; polar face substitutions, retention time difference relative to native peptide V681 (PSL) at 5° C., relative hydrophobicity) | ΔtR (X-PSL) (min) 80° C. ([2]; polar face substitutions, retention time difference relative to native peptide V681 (PSL) at 80° C., relative hydrophobicity) | MIC (μg/ml) Gram-positive ([1]; geometric mean MIC, Table 9)
1 | CC[C@H](C)[C@H](NC(=O)[C@H](C)NC(=O)[C@H](CCCCN)NC(=O)[C@H](CC(C)C)NC(=O)[C@H](C)NC(=O)[C@@H](NC(=O)[C@H](Cc1c[nH]cn1)NC(=O)[C@H](CC(C)C)NC(=O)[C@@H](NC(=O)[C@@H](NC(=O)[C@H](CCCCN)NC(=O)[C@H](C)NC(=O)[C@H](C)NC(=O)[C@H](CO)NC(=O)[C@H](CCCCN)NC(=O)[C@H](Cc1ccccc1)NC(=O)[C@@H](NC(=O)[C@H](CCCCN)NC(=O)[C@H](CC(C)C)NC(=O)[C@H](Cc1ccccc1)NC(=O)[C@H](CO)NC(=O)[C@H](CCCCN)NC(=O)[C@H](Cc1c[nH]c2ccccc12)NC(=O)[C@H](CCCCN)NC(C)=O)[C@@H](C)O)[C@@H](C)O)C(C)C)[C@@H](C)O)C(=O)N[C@@H](CO)C(=O)N[C@@H](CO)C(N)=O [NAL] | 4.5 µg/mL (≈ 1.53 µM) | 43.94 min | 41.38 min | -4.45 min | 44.88 min | 2.59 min | -4.16 min | -4.45 min |  |  | 
2 | CC[C@H](C)[C@H](NC(=O)[C@H](C)NC(=O)[C@H](CCCCN)NC(=O)[C@H](CC(C)C)NC(=O)[C@H](C)NC(=O)[C@@H](NC(=O)[C@H](Cc1c[nH]cn1)NC(=O)[C@H](CC(C)C)NC(=O)[C@@H](NC(=O)[C@@H](NC(=O)[C@H](CCCCN)NC(=O)[C@@H](CO)NC(=O)[C@H](C)NC(=O)[C@H](CO)NC(=O)[C@H](CCCCN)NC(=O)[C@H](Cc1ccccc1)NC(=O)[C@@H](NC(=O)[C@H](CCCCN)NC(=O)[C@H](CC(C)C)NC(=O)[C@H](Cc1ccccc1)NC(=O)[C@H](CO)NC(=O)[C@H](CCCCN)NC(=O)[C@H](Cc1c[nH]c2ccccc12)NC(=O)[C@H](CCCCN)NC(C)=O)[C@@H](C)O)[C@@H](C)O)C(C)C)[C@@H](C)O)C(=O)N[C@@H](CO)C(=O)N[C@@H](CO)C(N)=O [NSD] (Ac-KWKSFLKTFKSA[dS]KTVLHTALKAISS-NH2) | 16.0 µg/mL (≈ 5.42 µM) | 37.02 min | 34.08 min |  | 37.12 min | 1.46 min | -11.08 min | -11.75 min |  |  | 
3 | CC[C@H](C)[C@H](NC(=O)[C@H](C)NC(=O)[C@H](CCCCN)NC(=O)[C@H](CC(C)C)NC(=O)[C@H](C)NC(=O)[C@@H](NC(=O)[C@H](Cc1c[nH]cn1)NC(=O)[C@H](CC(C)C)NC(=O)[C@@H](NC(=O)[C@@H](NC(=O)[C@H](CCCCN)NC(=O)[C@@H](NC(=O)[C@H](C)NC(=O)[C@@H](C)NC(=O)[C@H](CCCCN)NC(=O)[C@H](Cc1ccccc1)NC(=O)[C@@H](NC(=O)[C@H](CCCCN)NC(=O)[C@H](CC(C)C)NC(=O)[C@H](Cc1ccccc1)NC(=O)[C@H](CO)NC(=O)[C@H](CCCCN)NC(=O)[C@H](Cc1c[nH]c2ccccc12)NC(=O)[C@H](CCCCN)NC(C)=O)[C@@H](C)O)C(C)C)[C@@H](C)O)C(C)C)[C@@H](C)O)C(=O)N[C@@H](CO)C(=O)N[C@@H](CO)C(N)=O [PAD] (Ac-KWKSFLKTFK[dA]AVKTVLHTALKAISS-NH2) | 3.8 µg/mL (≈ 1.29 µM) | 45.19 min | 42.57 min |  | 46.36 min | 2.82 min |  |  | -2.91 min | -3.26 min | 
4 | CC[C@H](C)[C@H](NC(=O)[C@H](C)NC(=O)[C@H](CCCCN)NC(=O)[C@H](CC(C)C)NC(=O)[C@H](C)NC(=O)[C@@H](NC(=O)[C@H](Cc1c[nH]cn1)NC(=O)[C@H](CC(C)C)NC(=O)[C@@H](NC(=O)[C@@H](NC(=O)[C@H](CCCCN)NC(=O)[C@H](NC(=O)[C@H](C)NC(=O)[C@H](CO)NC(=O)[C@H](CCCCN)NC(=O)[C@H](Cc1ccccc1)NC(=O)[C@@H](NC(=O)[C@H](CCCCN)NC(=O)[C@H](CC(C)C)NC(=O)[C@H](Cc1ccccc1)NC(=O)[C@H](CO)NC(=O)[C@H](CCCCN)NC(=O)[C@H](Cc1c[nH]c2ccccc12)NC(=O)[C@H](CCCCN)NC(C)=O)[C@@H](C)O)C(C)C)[C@@H](C)O)C(C)C)[C@@H](C)O)C(=O)N[C@@H](CO)C(=O)N[C@@H](CO)C(N)=O [NVD] |  | 42.55 min | 40.15 min |  | 43.43 min | 2.63 min | -5.55 min | -5.68 min |  |  | 2.8 µg/mL (≈ 0.945 µM)
5 | CC[C@H](C)[C@H](NC(=O)[C@H](C)NC(=O)[C@H](CCCCN)NC(=O)[C@H](CC(C)C)NC(=O)[C@H](C)NC(=O)[C@@H](NC(=O)[C@H](Cc1c[nH]cn1)NC(=O)[C@H](CC(C)C)NC(=O)[C@@H](NC(=O)[C@@H](NC(=O)[C@H](CCCCN)NC(=O)[C@@H](CCCCN)NC(=O)[C@H](C)NC(=O)[C@H](CO)NC(=O)[C@H](CCCCN)NC(=O)[C@H](Cc1ccccc1)NC(=O)[C@@H](NC(=O)[C@H](CCCCN)NC(=O)[C@H](CC(C)C)NC(=O)[C@H](Cc1ccccc1)NC(=O)[C@H](CO)NC(=O)[C@H](CCCCN)NC(=O)[C@H](Cc1c[nH]c2ccccc12)NC(=O)[C@H](CCCCN)NC(C)=O)[C@@H](C)O)[C@@H](C)O)C(C)C)[C@@H](C)O)C(=O)N[C@@H](CO)C(=O)N[C@@H](CO)C(N)=O [NKD] |  | 34.05 min | 30.96 min |  | 34.05 min | 1.10 min | -14.05 min | -14.87 min |  |  | 18.7 µg/mL (≈ 6.25 µM)
